Experimental data reported in US10022447B2, “Solid pharmaceutical compositions containing pregabalin” (Warner-Lambert Company LLC, priority 2005, dated 2018).

Test: Clinical studies of regional GI absorption of pregabalin
Type: in vivo
Conditions: humans
Text: Once daily dosing of pregabalin, however, presents numerous challenges. Conventional extended release (ER) compositions are problematic for QD dosing because pregabalin is not absorbed uniformly in the gastrointestinal (GI) tract. […] Furthermore, pregabalin is a γ-amino acid which under normal storage conditions may undergo intramolecular cyclization to form a lactam, 4-isobutyl-pyrrolidin-2-one. See, e.g., WO 99/10186 and WO 99/59573, both to A. Aomatsu. Although it is known that the non-active components of the pharmaceutical composition may affect lactam formation, it is difficult to predict which excipients may lead to undesirable lactam formation.

CC(C)C[C@H](CN)CC(=O)O [pregabalin, (S)-(+)-3-aminomethyl-5-methyl-hexanoic acid]
mean absorption window: about six hours or less
regional absorption in the GI tract: poorly absorbed beyond the hepatic flexure
